Experimental data as given in US20220259212A1, “INHIBITORS OF INDOLEAMINE 2,3-DIOXYGENASE AND/OR TRYPTOPHAN 2,3-DIOXYGENASE” (Idorsia Pharmaceuticals Ltd, priority 2019, published 2022).

How the values were obtained:
IDO1 in SKOV3 cells = target: T1, IDO1 in SKOV3 cells (Homo sapiens, UniProt P14902); test: Cell-based IDO inhibitory activity in IFNγ-stimulated SKOV3 cells (NFK + kynurenine by LCMS); details: IFNγ 50 ng/ml, 200 uM L-tryptophan, 24 hours
T1 construct: SKOV3 cells (NCI, No. 0503405) which upregulate IDO1 after stimulation with IFNγ; host or cells: SKOV3 cells stimulated with IFNγ
Source text: 3) Testing Compounds for IDO/TDO Inhibitory Activity and Toxicity in Cell-Based Assays
SW48 cells (ATCC, CCL-231) are used to measure compounds for TDO inhibitory activity and are routinely maintained in DMEM high glucose/GlutaMAX™/pyruvate 90% (v/v), FCS 10% (v/v), Penicilin/streptomycin 1% (v/v). SKOV3 cells (NCI, No. 0503405) which upregulate IDO1 after stimulation with IFNγ are used to measure compounds for IDO inhibitory activity. SKOV3 cells are routinely maintained in RPMI 90% (v/v), FCS 10% (v/v), Penicilin/streptomycin 1% (v/v). SW48 or SKOV3 cells are seeded in 384 well plates at a density of 8000 cells in 45 ul per well or 4000 cells in 45 ul per well, respectively. Plates are incubated at 37° C./5% CO2 for 24 hours. On the next day, 10 ul compound in serial dilutions (tested concentration range 10 uM-40 nM) and 200 uM L-tryptophan are added (SKV03 receive in addition IFNγ at a final concentration of 50 ng/ml). After 24 hours of incubation at 37° C./5% CO2, 3 ul of the supernatant per well is transferred to 25 ul H2O per well in a 384 deep well plate and 25 ul of the supernatant per well is transferred to waste. The SKOV3 and SW48 cell plates with 25 ul supernatant per well remaining are used to measure viability (see below). The 384 deep well plate containing 3 ul supernatant and 25 ul H2O per well are further processed for LCMS: After the addition of 100 ul L-tryptophan-(indole-d5) (Sigma 615862) at 200 nM in methanol, the 384 deep well plates are centrifuged for 10 minutes at 3220×g at 4° C., 75 ul H2O is added per well and plates centrifuged again for 10 minutes at 3220×g at 4° C. N-formylkynurenine and kynurenine are quantified by LCMS, normalized to the internal standard L-tryptophan-(indole-d5) and the sum is calculated. Samples with 0.2% DMSO (0% effect) and a TDO/IDO inhibitor (100% effect) are used as control samples to set the parameters for the non-linear regression necessary for the determination of the IC50 for each compound. For each compound concentration the percentage of activity compared to 0% and 100% effect is calculated as average±STDEV (each concentration measured in duplicate). IC50 values and curves are generated with XLfit software (IDBS) using Dose-Response One Site model 203. The calculated IC50 values may fluctuate depending on the daily cellular assay performance. Fluctuations of this kind are known to those skilled in the art. When compounds are measured multiple times, mean values are given.

[1] = target: T2, Recombinant full-length human IDO1 (Homo sapiens, UniProt P14902); test: IDO1 enzymatic assay (NFK quantified by LCMS); format: biochemical; details: 2 nM enzyme, 5 μM L-tryptophan, 30 min pre-incubation, pH6.5; mean if measured multiple times; read-out: hIDO activity (IC50 in nM)
T2 construct: Recombinant full-length human IDO1 with a N-terminal hexahistidine tag; hexahistidine (N); made in house; host or cells: E. coli
Method: 1) Testing Compounds for IDO Inhibitory Activity in an IDO1 Enzymatic Assay:
Recombinant full-length human IDO1 with a N-terminal hexahistidine tag expressed in E. coli and purified to homogeneity is incubated at a final concentration of 2 nM in assay buffer consisting of 37.5 mM phosphate buffer at pH6.5 supplemented with 10 mM ascorbic acid, 0.45 μM methylene blue, 50 U/ml catalase, 0.01% BSA, and 0.01% Tween 20 (protocol modified from Seegers et al, JBS 2014). Example compounds are serially diluted in DMSO, further diluted in phosphate buffer, and added to the enzyme at final concentrations ranging from 10 μM to 0.5 nM. The final DMSO concentration is 0.6%. Following a pre-incubation of 30 minutes at RT, the reaction is started by the addition of L-tryptophan at a final concentration of 5 μM in assay buffer. After 30 minutes of incubation at RT, 3 μL of the 20 μl reaction mixture are transferred to a 384 deep well plate containing 25 μL of deionized water. 100 μl of 200 nM L-Tryptophan-(indole-d5) in cold 100% methanol are added followed by a 10 minutes centrifugation at 3220×g at 4° C. An additional 75 μL of deionized water are then added followed by a 10 minutes centrifugation at 3220×g at 4° C. The product of the reaction N′-Formylkynurenine (NFK) is quantified by LCMS and normalized to the L-Tryptophan-(indole-d5) signal. Samples with 0.6% DMSO (0% effect) and a TDO/IDO inhibitor (100% effect) are used as control samples to set the parameters for the non-linear regression necessary for the determination of the half-maximal inhibitory concentration (IC50) for each compound. For each compound concentration the percentage of activity compared to 0% and 100% effect is calculated as average±STDEV (each concentration measured in duplicate). IC50 values and curves are generated with XLfit software (IDBS) using Dose-Response One Site model 203 (four parameter logistic curve model). The calculated IC50 values may fluctuate depending on the daily assay performance. Fluctuations of this kind are known to those skilled in the art. When compounds are measured multiple times, mean values are given.

[2] = target: T3, Recombinant human TDO comprising amino acids 19-407 (Homo sapiens, UniProt P48775); test: TDO2 enzymatic assay (NFK quantified by LCMS); format: biochemical; details: 15 nM enzyme, 200 μM L-tryptophan, 30 min pre-incubation, pH7; mean if measured multiple times; read-out: hTDO activity (IC50 in nM)
T3 construct: human TDO comprising amino acids 19-407; hexahistidine (N); made in house; host or cells: E. coli
Method: 2) Testing Compounds for TDO Inhibitory Activity in a TDO2 Enzymatic Assay:
Recombinant human TDO comprising amino acids 19-407 with a N-terminal hexahistidine tag expressed in E. coli and purified to homogeneity is incubated at a final concentration of 15 nM in assay buffer consisting of 75 mM phosphate buffer at pH7 supplemented with 100 μM ascorbic acid, 50 U/ml Catalase, 0.01% BSA, and 0.01% Tween 20 (protocol modified from Seegers et al, JBS 2014). Example compounds are serially diluted in DMSO, further diluted in phosphate buffer, and added to the reaction mixture at final concentrations ranging from 10 μM to 0.5 nM. The final DMSO concentration is 0.6%. Following a pre-incubation of 30 minutes at RT, the reaction is started by the addition of L-tryptophan at a final concentration of 200 μM in assay buffer. After 30 minutes of incubation at RT, 3 μL of the reaction mixture are transferred to a 384 deep well plate containing 25 μL of deionized water. 100 μl of 200 nM L-Tryptophan-(indole-d5) in cold 100% methanol are added followed by a 10 minutes centrifugation at 3220×g at 4° C. An additional 75 μL of deionized water are then added followed by a 10 minutes centrifugation at 3220×g at 4° C. The product of the reaction N′-Formylkynurenine (NFK) is quantified by LCMS and normalized to the L-Tryptophan-(indole-d5) signal. Samples with 0.6% DMSO (0% effect) and a TDO/IDO inhibitor (100% effect) are used as control samples to set the parameters for the non-linear regression necessary for the determination of the half-maximal inhibitory concentration (IC50) for each compound. For each compound concentration the percentage of activity compared to 0% and 100% effect is calculated as average±STDEV (each concentration measured in duplicate). IC50 values and curves are generated with XLfit software (IDBS) using Dose-Response One Site model 203 (four parameter logistic curve model). The calculated IC50 values may fluctuate depending on the daily assay performance. Fluctuations of this kind are known to those skilled in the art. When compounds are measured multiple times, mean values are given.

T2 sequence (P14902 whole entry): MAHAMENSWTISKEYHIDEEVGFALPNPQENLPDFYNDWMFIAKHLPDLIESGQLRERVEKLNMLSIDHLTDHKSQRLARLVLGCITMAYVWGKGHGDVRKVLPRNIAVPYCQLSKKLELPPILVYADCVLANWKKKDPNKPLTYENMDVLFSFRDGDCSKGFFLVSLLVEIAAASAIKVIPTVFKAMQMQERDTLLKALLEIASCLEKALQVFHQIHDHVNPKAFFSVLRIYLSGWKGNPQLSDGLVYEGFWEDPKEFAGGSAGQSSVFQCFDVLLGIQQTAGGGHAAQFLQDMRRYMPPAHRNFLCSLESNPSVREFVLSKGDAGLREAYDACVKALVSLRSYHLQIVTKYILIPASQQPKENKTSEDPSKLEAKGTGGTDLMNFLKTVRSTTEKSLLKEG
T1 sequence (P14902 whole entry): as above
T3 sequence (P48775 19-406 limits assumed): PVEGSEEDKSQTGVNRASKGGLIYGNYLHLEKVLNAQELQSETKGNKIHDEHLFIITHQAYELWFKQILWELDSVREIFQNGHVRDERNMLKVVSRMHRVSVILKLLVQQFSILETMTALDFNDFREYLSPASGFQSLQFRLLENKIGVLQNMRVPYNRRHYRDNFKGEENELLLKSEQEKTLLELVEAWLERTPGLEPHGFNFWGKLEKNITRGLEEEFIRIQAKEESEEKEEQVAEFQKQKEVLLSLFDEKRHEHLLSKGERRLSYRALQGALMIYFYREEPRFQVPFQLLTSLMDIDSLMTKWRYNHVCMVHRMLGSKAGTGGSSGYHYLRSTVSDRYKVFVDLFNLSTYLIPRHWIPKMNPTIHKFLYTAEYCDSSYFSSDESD

| SMILES | IC50 (IDO1 in SKOV3 cells) [nM] | IC50 [1] [nM] | IC50 [2] [nM] |
| --- | --- | --- | --- |
| Cc1ccc2cncn2c1C(O)c1cn(-c2ccccc2)nn1 (racemic) [Example 2, rac-(6-Methyl-imidazo[1,5-a]pyridin-5-yl)-(1-phenyl-1H-[1,2,3]triazol-4-yl)-methanol] | 225 | 6.17 | > 10200 |
| COc1cc(F)c(-n2cc([C@H](O)c3c(C4CC4)ncc4cncn34)nn2)cc1Cl [Example 25, (R)-[1-(5-Chloro-2-fluoro-4-methoxy-phenyl)-1H-[1,2,3]triazol-4-yl]-(6-cyclopropyl-imidazo[1,5-a]pyrazin-5-yl)-methanol] | 33 | 5.86 | > 10200 |
| Cc1c(C(O)c2c(Cl)ccc3cncn23)nnn1-c1ccccc1 (racemic) [Example 38, rac-(6-Chloro-imidazo[1,5-a]pyridin-5-yl)-(5-methyl-1-phenyl-1H-[1,2,3]triazol-4-yl)-methanol] | 86 | 5.43 | 4710 |
| COc1c(F)cc(-n2cc([C@H](O)c3c(C4CC4)ncc4cncn34)nn2)cc1Cl [Example 26, (R)-[1-(3-Chloro-5-fluoro-4-methoxy-phenyl)-1H-[1,2,3]triazol-4-yl]-(6-cyclopropyl-imidazo[1,5-a]pyrazin-5-yl)-methanol] | 74.3 | 4.5 | > 10200 |
| COc1ccc(-n2cc([C@H](O)c3c(C4CC4)ccc4cncn34)nn2)cc1Cl [Example 8a, (R)-[1-(3-Chloro-4-methoxy-phenyl)-1H-[1,2,3]triazol-4-yl]-(6-cyclopropyl-imidazo[1,5-a]pyridin-5-yl)-methanol] | 18.9 | 9.85 | > 10200 |
| COc1ccc(-n2nnc(C(O)c3c(Cl)ccc4cncn34)c2C)cc1 (racemic) [Example 20, rac-(6-Chloro-imidazo[1,5-a]pyridin-5-yl)-[1-(4-methoxy-phenyl)-5-methyl-1H-[1,2,3]triazol-4-yl]-methanol] | 14.5 | 2.78 | 5260 |
| O[C@@H](c1cn(-c2ccccc2)nn1)c1c(C2CC2)ncc2cncn12 [Example 3a, (R)-(6-Cyclopropyl-imidazo[1,5-a]pyrazin-5-yl)-(1-phenyl-1H-[1,2,3]triazol-4-yl)-methanol] | 282 | 16.7 | > 10200 |
| O[C@@H](c1cn(-c2ccc(N3CCC34COC4)cc2)nn1)c1c(C2CC2)ncc2cncn12 [Example 46, (R)-(6-Cyclopropyl-imidazo[1,5-a]pyrazin-5-yl)-{1-[4-(6-oxa-1-aza-spiro[3.3]hept-1-yl)-phenyl]-1H-[1,2,3]triazol-4-yl}-methanol] | 356 | 15.1 | > 10200 |
| Oc1ccc(-n2cc([C@@H](O)c3c(C4CC4)ccc4cncn34)nn2)cc1Cl [Example 7b, 2-Chloro-4-{4-[(S)-(6-cyclopropyl-imidazo[1,5-a]pyridin-5-yl)-hydroxy-methyl]-[1,2,3]triazol-1-yl}-phenol] | 703 | 361 | > 10200 |
| CC(C)(O)COc1ccc(-n2cc(C(O)c3c(C4CC4)ncc4cncn34)nn2)cc1 (racemic) [Example 18, rac-1-(4-{4-[(6-Cyclopropyl-imidazo[1,5-a]pyrazin-5-yl)-hydroxy-methyl]-[1,2,3]triazol-1-yl}-phenoxy)-2-methyl-propan-2-ol] | 140 | 33.2 | > 10200 |
| COc1ccc(-n2cc(C(O)c3c(C4CC4)ncc4cncn34)nn2)cc1Cl (racemic) [Example 11, rac-[1-(3-Chloro-4-methoxy-phenyl)-1H-[1,2,3]triazol-4-yl]-(6-cyclopropyl-imidazo[1,5-a]pyrazin-5-yl)-methanol] | 37.1 | 12.5 | > 10200 |
| CCc1ncc2cncn2c1C(O)c1cn(-c2cc(F)c(OC)cc2F)nn1 (racemic) [Example 32, rac-[1-(2,5-Difluoro-4-methoxy-phenyl)-1H-[1,2,3]triazol-4-yl]-(6-ethyl-imidazo[1,5-a]pyrazin-5-yl)-methanol] | 70.2 | 14.3 | > 10200 |
| CCc1ccc2cncn2c1C(O)c1cn(-c2ccc(OC)cc2)nn1 (racemic) [Example 34, rac-(6-Ethyl-imidazo[1,5-a]pyridin-5-yl)-[1-(4-methoxy-phenyl)-1H-[1,2,3]triazol-4-yl]-methanol] | 14.5 | 2.97 | > 10200 |
| Cc1c(C(O)c2c(Cl)ccc3cncn23)nnn1-c1ccc(O)c(Cl)c1 (racemic) [Example 43, rac-2-Chloro-4-{4-[(6-chloro-imidazo[1,5-a]pyridin-5-yl)-hydroxy-methyl]-5-methyl-[1,2,3]triazol-1-yl}-phenol] | 64.2 | 3.88 | 832 |
